In US20090318366A1, “CHOLESTEROL LOWERING PROTEIN HYDROLYSATES” (DSM IP ASSETS B.V., priority 2006, published 2009):
Marks after values point to notes of the source that are not given here.

Key:
[1] = system: Fisher F344 rats; experiment: Hypocholesterolemic effects of five small peptides in Fisher F344 rats, hypercholesterolemic rat model (Example 9); format: in vivo; details: 100 mg/kg BW oral, 7 days, mean ± SD, n = 9-10; for HDL cholesterol (plasma): control 0.14 ± 0.08; for Total cholesterol (plasma): control 10.1 ± 2.2; for non HDL cholesterol (plasma): total minus HDL cholesterol, control 10.0 ± 2.2
Excerpt: In short eighty male Fisher rats (F344) from Charles River (Sulzfeld, Germany), weighing 65-96 g were housed individually with free access to water and feed, with an alternating 12-hour light-dark cycle. The animals were fed a rodent atherogenic diet high in cholesterol and fat for the 2 weeks preceding the treatment. The macro-nutrient composition of the diet was as follows (g/100 g anhydrous mix): protein 20.8; fiber 4.2; fat 15; carbohydrate 48. The diet also contained 1.25 wt % cholesterol, 0.5 wt % sodium cholate and a standard vitamin and mineral mix, prepared according to rat nutritional requirements. The main fats consisted of cacoa butter (7.5 wt %) and soja oil (4.35 wt %). After 2 weeks of adaptation to the diet the rats were randomized according to body weight into […] of 10 animals. The […] were treated orally every morning for 7 days with either water (control group) or one of the following peptides: RPRPS, RGRPS, HPHPH, RPRP, KPKPS, at a dose of 100 mg/kg body weight (BW) while continuing the aetherogenic diet. There was no difference in feed consumption over the whole experiment. The day before the last administration, all animals were dosed orally in the evening and deprived of food overnight (14 hours) but allowed free access to water. At day 7 the fasted rats were treated again orally in the morning and after two hours the animals were sacrificed by withdrawing blood from the vena Cava under Isoflurane anesthesia. Blood was collected into tubes containing EDTA as an anticoagulant. Plasma was prepared from the blood by immediate centrifugation at 1600 g for 10 minutes at 4° C. Assays of plasma cholesterol and HDL-cholesterol (precipitation method) were determined enzymatically on a Hitachi 912 automatic analyzer (Roche Diagnostica, Switzerland). Non-HDL cholesterol was calculated by difference between total cholesterol and HDL cholesterol. One animal in the control group was excluded from the analysis due to hemolytic plasma which interfered with the measurements. All data are expressed as means±standard deviation (SD) for animals in each diet group, with n being the number of rats. Statistical significance of the mean differences between dietary groups was tested by one-way analysis of variance (ANOVA). If significant differences were found, the Dunnett's test for multiple comparison was used to compare each group to the control group. P values less than 0.05 were considered significant (Table 3).

[2] = In vivo efficacy of peptide RPRPRPSF with and without beta-sitosterol (protocol of Nagaoka et al.); details: in combination with beta-sitosterol
Excerpt: Peptide RPRPRPSF is chemically synthesized and beta-sitosterol is obtained from Sigma. Both compounds, apart and in combination, are subjected to a testing protocol which is essentially similar to the in vivo testing protocol described by Nagaoka et al., BBRC 281 (2001) 11-17.

[3] = system: Fisher F344 rats; experiment: Hypocholesterolemic effects of peptides in Fisher F344 rats on atherogenic diet (Example 8); format: in vivo, rat; details: 7 days; for HDL cholesterol (plasma) / Total cholesterol (plasma) / non HDL cholesterol (plasma): mean ± SD, n = 10; for HDL cholesterol (plasma): control 0.22 ± 0.12; for Total cholesterol (plasma): control 12.8 ± 3.1; for non HDL cholesterol (plasma): total minus HDL cholesterol, control 12.5 ± 3.1
Excerpt: Forty male Fisher rats (F344) from Charles River (Sulzfeld, Germany), weighing 70-85 g were housed individually with free access to water and feed, with an alternating 12-hour light-dark cycle. The animals were fed a rodent atherogenic diet high in cholesterol and fat for the 2 weeks preceding the treatment. The macro-nutrient composition of the diet was as follows (g/100 g anhydrous mix): protein 20.8; fiber 4.2; fat 15; carbohydrate 48. The diet also contained 1.25 wt % cholesterol, 0.5 wt % sodium cholate and a standard vitamin and mineral mix, prepared according to rat nutritional requirements. The main fats consisted of cacoa butter (7.5 wt %) and soja oil (4.35 wt %). After 2 weeks of adaptation to the diet the rats were randomized according to body weight into four experimental groups of 10 animals. The four groups were treated orally every morning for 7 days with either water (control group) or octapeptide (RPRPRPSF) at two doses of 200 and 800 mg/kg body weight (BW) respectively or soy protein (SUPRO 760) at 800 mg/kg BW while continuing the aetherogenic diet. There was no difference in feed consumption over the whole experiment. The day before the last administration, all animals were dosed orally in the evening and deprived of food overnight (14 hours) but allowed free access to water. At day 7 the fasted rats were treated again orally in the morning and after two hours the animals were sacrificed by withdrawing blood from the vena Cava under Isoflurane anesthesia. Blood was collected into tubes containing EDTA as an anticoagulant. Plasma was prepared from the blood by immediate centrifugation at 1600 g for 10 minutes at 4° C. Assays of plasma cholesterol and HDL-cholesterol (precipitation method) were determined enzymatically on a Hitachi 912 automatic analyzer (Roche Diagnostica, Switzerland). Non-HDL cholesterol was calculated by difference between total cholesterol and HDL cholesterol. All data are expressed as means±standard deviation (SD) for animals in each diet group, with n being the number of rats. Statistical significance of the mean differences between dietary groups was tested by one-way analysis of variance (ANOVA). If significant differences were found, the Dunnett's test for multiple comparison was used to compare each group to the control group. P values less than 0.05 were considered significant (Table 2).

[4] = Solubility of cholesterol in mixed micelles (intramicellar cholesterol after 24 h at 37° C., centrifugation and filtration); details: 10 mg/ml test substance, 0.5 mM cholesterol, 6.6 mM taurocholate, 2.4 mM lecithin, pH 7.4, control 0.494
Procedure: The mixed micelles were prepared according to the method described by Nagaoka et al. (Biochemical and Biophysical Research Communications 281: 11-17 (2001)) by sonication of a 15 mM phosphate buffer saline (PBS) solution containing 6.6 mM taurocholate, 2.4 mM lecithin, 0.5 mM cholesterol and either 10 mg/ml of octapeptide (RPRPRPSF, MW1012) or 10 mg/ml soy protein (SUPRO 760, Solea Belgium) at pH 7.4. The lipids, phospholipids and cholesterol were dissolved in methanol and dried before adding the PBS buffer and the peptides or the soy protein at a final concentration of 10 mg/ml. The resulting micellar solution was kept at 37° C. for 24 hours and centrifuged at 1000×g for 10 min. In order to separate any precipitated cholesterol from the intramicellar cholesterol the solution was then filtered through a 0.22 μm MILLEX-GP filter (Millipore, Bedford, Mass., USA). The intramicellar concentration of cholesterol was then determined enzymatically using a cholesterol kit and a Hitachi 912 automatic analyzer from Roche Diagnostica, Switzerland.

[5] = 200 and 800 mg/Kg BW oral, p < 0.05

Substance	HDL cholesterol (plasma) [1]	Total cholesterol (plasma) [1]	non HDL cholesterol (plasma) [1]	also measured
HPHPH	0.29 ± 0.13^b mmol/L	3.4 ± 1.2^b mmol/L	3.1 ± 1.3^b mmol/L	
KPKPS	0.29 ± 0.11^b mmol/L	3.0 ± 1.0^b mmol/L	2.7 ± 1.0^b mmol/L	
RGRPS	0.37 ± 0.14^b mmol/L	3.2 ± 0.4^b mmol/L	2.9 ± 0.4^b mmol/L	
RPRP	0.33 ± 0.11^b mmol/L	2.9 ± 0.4^b mmol/L	2.6 ± 0.4^b mmol/L	
RPRPRPSF [synthetic octapeptide R-P-R-P-R-P-S-F, MW1012]				Effect on cholesterol in vivo [2]: further enhanced; HDL cholesterol (plasma) ([3]; 200 mg/Kg BW oral): 0.54 ± 0.20^b mmol/L; Total cholesterol (plasma) ([3]; 200 mg/Kg BW oral): 4.1 ± 1.2^b mmol/L; non HDL cholesterol (plasma) ([3]; 200 mg/Kg BW oral): 3.6 ± 1.2^b mmol/L; HDL cholesterol (plasma) ([3]; 800 mg/Kg BW oral): 0.51 ± 0.17^b mmol/L; Total cholesterol (plasma) ([3]; 800 mg/Kg BW oral): 3.4 ± 0.7^b mmol/L; non HDL cholesterol (plasma) ([3]; 800 mg/Kg BW oral): 2.9 ± 0.7^b mmol/L; Non-HDL cholesterol (VLDL-cholesterol+LDL-cholesterol) levels as compared to the control group [3, 5]: significantly lowered; Plasma total cholesterol levels as compared to the control group [3, 5]: significantly lowered; Ratio of non-HDL cholesterol to HDL-cholesterol ([3]; oral): positively affected; Plasma HDL-cholesterol compared to the control group ([3]; oral, p < 0.05): significantly increased; Cholesterol content of the micellar solution ([4]; listed as Octapeptide): 0.153 mmol/L; Cholesterol content of the micellar solution ([4]; listed as octapeptide (RPRPRPSF)): drastically decreased
RPRPS	0.29 ± 0.06^b mmol/L	3.6 ± 1.1^b mmol/L	3.3 ± 1.2^b mmol/L	
